According to patent US11072634B2, “Inhibitors of transglutaminases” (Zedira GmbH, priority 2016, dated 2021):

Key:
NRK52E cells = experiment: Extracellular matrix protein deposition of NRK52E cells (DC-protein-assay); assay type: cell-based, Rattus norvegicus; settings: hyperglycemic glucose concentrations
Experimental: Fibrosis is a hallmark in diabetic nephropathy and chronic kidney diseases. Proximal tubular epithelial cells show increased TG2 activity and increased extracellular matrix proteins (ECM) accumulation under hyperglycemic conditions. ECM accumulation is a hall mark of fibrosis. […] TG2-activity and ECM-accumulation was measured. Rattus norvegicus kidney derived cell line NRK52E was grown at 37° C. in a humidified atmosphere at 5% (v/v) CO2 in DMEM (Dulbecco's modified Eagle's medium) containing 100 μg/mL streptomycin, 100 units/ml penicillin, […], and 10% (v/v) fetal calf serum. For simulation of normal physiological conditions 6 mM D-glucose were added to the medium, while addition of 24 mM and 36 mM D-glucose simulated hyperglycemic conditions. Reversible TG2 inhibitor E06 in the concentrations indicated in FIG. 1A was added at the time of plating to the medium. Reversible TG2 inhibitor E22 in the concentrations indicated in FIG. 2A was added at the time of plating to the medium.
For the determination of extracellular matrix proteins (ECM) deposition, cells grown in 10 cm Petri-dishes were removed with 1 mL sodium deoxycholate (0.1%) -EDTA (2 mM)-solution. ECM proteins remaining on the plate were solubilized by digestion with trypsin (0.2 mg/mL) -EDTA (2 mM) solution. […] Protein concentration was determined using the DC-protein-assay (BioRad, #5000111).

[1] = biological target: T1, recombinant human factor XIII A-subunit (rhFXIII-A, plasma transglutaminase) (Homo sapiens, UniProt P00488); experiment: Inhibition of rec. human coagulation factor XIII (fluorescence, Abz-NE(CAD-DNP)EQVSPLILLK-OH); assay type: biochemical; settings: Table 1, selectivity with respect to FXIII; read-out: IC50 FXIII
T1 construct: His6; purchased Zedira 1027 (so in the source); T027)
T1 sequence (P00488 39-732 limits assumed): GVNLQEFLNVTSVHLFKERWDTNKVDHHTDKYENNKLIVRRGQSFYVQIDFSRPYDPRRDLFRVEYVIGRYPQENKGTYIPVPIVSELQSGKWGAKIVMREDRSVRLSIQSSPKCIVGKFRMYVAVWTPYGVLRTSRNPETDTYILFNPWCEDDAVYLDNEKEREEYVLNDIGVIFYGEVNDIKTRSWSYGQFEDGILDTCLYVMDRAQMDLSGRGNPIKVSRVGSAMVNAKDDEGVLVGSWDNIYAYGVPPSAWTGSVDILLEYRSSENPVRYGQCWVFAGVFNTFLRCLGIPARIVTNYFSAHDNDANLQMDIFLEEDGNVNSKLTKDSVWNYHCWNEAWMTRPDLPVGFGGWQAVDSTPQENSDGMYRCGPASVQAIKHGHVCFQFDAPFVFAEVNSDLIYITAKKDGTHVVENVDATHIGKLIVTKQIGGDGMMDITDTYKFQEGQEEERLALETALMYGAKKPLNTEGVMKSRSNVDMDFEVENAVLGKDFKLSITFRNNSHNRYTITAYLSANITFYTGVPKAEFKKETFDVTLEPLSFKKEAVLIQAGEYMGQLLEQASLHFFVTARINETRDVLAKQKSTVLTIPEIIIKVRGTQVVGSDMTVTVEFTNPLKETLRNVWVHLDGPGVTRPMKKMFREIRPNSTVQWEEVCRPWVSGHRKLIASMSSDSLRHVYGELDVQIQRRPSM
In short: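 His6-rhFXIII activated by human alpha thrombin in Tris buffer pH 7.4 with 7.5 mM CaCl2, 5 mM DTT, 13.4 mM glycine methylester and 50 μM quenched peptide substrate. Fluorescence (ex 313, em 418 nm) followed at 37 °C for 35 min; IC50 from slope between 20 and 30 min versus 2% DMSO control.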

Row | IC50 [1] | Compound | increase of ECM (extracellular matrix protein deposition) (NRK52E cells)
1 | – | CCCCCNC(=O)C(=O)CC[C@H](NC(=O)[C@@H]1CCCN1C(C)=O)C(=O)Nc1cccn(CC(=O)NCC(CC)CC)c1=O [Compound E22, (S)-2-((S)-1-acetylpyrrolidine-2-carboxamido)-N1-(1-(2-(2-ethylbutylamino)-2-oxoethyl)-2-oxo-1,2-dihydropyridin-3-yl)-5-oxo-N6-pentylhexanediamide] | reduced in a dose dependent manner
2 | > 100 µM | CC(=O)N[C@@H](CCC(=O)C(N)=O)C(=O)N1CCN(c2ccccc2Cl)CC1 [Compound E06, (S)-5-acetamido-6-(4-(2-chlorophenyl)piperazin-1-yl)-2,6-dioxohexanamide] | reduced in a dose dependent manner
3 | > 100 µM | COC(=O)[C@H](CC(C)C)NC(=O)[C@@H]1CCCN1C(=O)[C@@H](NC(=O)[C@H](CCC(=O)C(N)=O)NC(=O)OCc1ccccc1)C(C)C [Compound E02, (S)-methyl 2-((S)-1-((S)-2-((S)-6-amino-2-(benzyloxycarbonylamino)-5,6-dioxo-hexanamido)-3-methylbutanoyl)pyrrolidine-2-carboxamido)-4-methylpentanoate] | –
4 | > 100 µM | CC(=O)N1CCC[C@H]1C(=O)N[C@@H](CCC(=O)C(N)=O)C(=O)N1CCN(c2ncccc2C)CC1 [Compound E07, (S)-1-acetyl-N—((S)-6-amino-1-(4-(3-methylpyridin-2-yl)piperazin-1-yl)-1,5,6-trioxohexan-2-yl)pyrrolidine-2-carboxamide] | –
